Experimental data: patent US20210238172
Like-named read-outs stand apart in the source and are kept apart here.

Conditions: amide bond, HATU/DIEA, NMP, 2 steps

Substance | ring closure, yield after HPLC (21-membered ring, 92.4 mM, 80.0 °C) | ring closure, yield after HPLC (22-membered ring, 68.9 mM, 140.0 °C)
8-Ethyl-10,18-dimethyl-7,20-dioxo-6,7,8,11,14,15,20,21,28,29,30,31-dodecahydrobenzo[4,5]imidazo[1,2-a]benzo[4,5]imidazo[2,1-p]dipyrazolo[5,1-e:4′,3′-l][1,3,6,15,17]pentaazacyclohenicosine-3,24-dicarboxamide | 1.7% | –
8-ethyl-10,18,30-trimethyl-7,20-dioxo-7,8,11,12,13,14,15,20,21,28,29,30,31,32-tetradecahydro-benzo[4,5]imidazo[2,1-b]benzo[4,5]imidazo[1,2-i]dipyrazolo[5,1-m:4′,3′-t][1,3,6,9,11,14]hexaazacyclodocosine-3,24-dicarboxamide | – | 4.56%
